What was measured:
SW1990 cells = test: Cell viability (DAPI nuclei count, high content imaging); format: cell-based; conditions: Homo sapiens, SW1990, 72 h, read-out: IC50, viability
Protocol: Cell viability, colony formation, sphere formation and growth curve. To quantify viability, cells were plated into 96-well plates (6000/well) one night before treatment. […] After fixation, cell nuclei were stained with DAPI (Invitrogen). Plates were analyzed using MetaXpress High Content Image Acquisition and Analysis System (Molecular Devices).

TRA-1-60+ SW1990GR cells = test: High content screen / immunofluorescent staining of TRA-1-60+ cells; format: cell-based
Protocol: Immunofluorescent staining. Primary antibodies were TRA-1-60 antibody (BD, 1:200), biotin conjugated TRA-1-60 antibody (eBioscience, 1:200). Secondary antibodies were donkey anti-mouse Alexa-efluor594 (Life technologies, 1:500) or streptavidin conjugated Alexa Fluor® 594 (Life technologies, 1:200).
Cells were fixed with 10% formalin for 20 min at room temperature. After 1 hour blocking in PBS with 5% horse serum and 0.3% triton-X100, primary antibodies were added to cells and incubated overnight at 4° C. Secondary antibody incubation was 1.5 hours at room temperature.
Chemical library screening. The Prestwick library of FDA approved drugs (˜1280 chemicals) plus a collection of drugs in clinical trials was used for the screen on SW1990GR cells.
For screening, SW1990GR cells were plated in 384-well plates (5000 cells/well). After overnight incubation, chemicals were added at 1 μM or 10 μM in duplicate. After 5 days of treatment, plates were stained with TRA-1-60 antibody and analyzed with MetaXpress High Content Image Acquisition and Analysis System (Molecular Devices). Wells treated with DMSO were set as control. The reduction was calculated by subtracting the percentage of TRA-1-60^+ cells in the chemical-treated wells from that of control wells. Standard deviation of TRA-1-60^+ percentage in control wells was calculated and 3-fold of this value was taken as threshold to pick up the primary hit.

SW1990GR cells = test: Annexin V/DAPI apoptosis by flow cytometry; format: cell-based; conditions: 100 nM or 200 nM CYM, one day; TRA-1-81+ and TRA-1-81− subpopulations
Protocol: Flow cytometry. TRA-1-60 PerCP-efluor710 (eBioscience, 1:50) and TRA-1-81 PE (eBioscience, 1:100) were used. Cells were blocked with 5% FBS plus mouse IgM isotype control antibody (eBioscience, 1:100) at room temperature for 15 min, then stained on ice for 30 min. Stained cells were resuspended in PBS containing 300 nM DAPI and proceeded to analysis or sorting. Cell apoptosis was analyzed with FITC-AnnexinV labeling reagent (BD). Flow cytometry analysis was carried out on BD FACS Calibur with FlowJo 9.8 software. Sorting was performed with FACSVantage SE (Becton Dickinson).

[1] = tested on: UGT1A10 transcript in SW1990 cells; test: qRT-PCR of UGT1A10 expression; format: cell-based; conditions: SW1990, CYM treatment
Protocol: (§1) qRT-PCR. Reverse transcription reaction was prepared with 0.5-2 μg total RNA using High Capacity cDNA Reverse Transcription Kit (Applied Biosystems). Products were diluted 10 folds with DNase&RNase free water as template. qPCR reactions were prepared with 2× LightCycler 480 SYBR Green I Master reagent (Roche) and proceeded in LightCycler 480 II (Roche) with software LightCycler 480 SW1.5.1 for signal acquisition and processing. ACTB was employed as internal reference. Primers were listed below: […]

[2] = tested on: UGT1A10 transcript in SW1990GR cells; test: qRT-PCR of UGT1A10 expression; format: cell-based
Protocol: as §1

HPAF-II cells = test: Cell viability with GEM and CYM; format: cell-based; conditions: 50 nM GEM and 25 nM CYM, 5 days
Protocol: (§2) Cell viability, colony formation, sphere formation and growth curve. To quantify viability, cells were plated into 96-well plates (6000/well) one night before treatment. Drugs were then added in indicated dose for 5 days. After fixation, cell nuclei were stained with DAPI (Invitrogen). Plates were analyzed using MetaXpress High Content Image Acquisition and Analysis System (Molecular Devices).

HT-29 cells = test: Cell viability with GEM and CYM; format: cell-based; conditions: HT-29, 50 nM GEM and 25 nM CYM, 5 days
Protocol: as §2

[3] = tested on: UGT1A10 overexpressing SW1990 cells; test: Cell viability of UGT1A10 overexpressing cells; format: cell-based; conditions: 50 nM CYM, control vs UGT1A10 overexpressing SW1990
Source text: To determine whether UTG1A10 is sufficient to induce TRA-1-81 expression and chemoresistance, UGT1A10 was overexpressed ectopically in SW1990 cells (UGT-OE). Cells expressing firefly luciferase were used as control (CTRL). […] Indeed, the viability of UGT-OE cells is higher than control cells following GEM treatment (FIG. 4G). […] In summary, UGT1A10 is both required and sufficient to enhance TRA-1-60 and TRA-1-81 expression and chemoresistance.
LentiLuc-blast and LentiUGT1A10-blast plasmid were generated based on LentiCas9-blast vector (Addgene, 52926). Luciferasec DNA was cloned from pGL3-promoter plasmid (Promega) with PCR amplification and inserted between AgeI and BamHI sites. UGT1A10 cDNA was PCR amplified from plasmid purchased from Dharmacon (MHS6278-202756114) and inserted between XbaI and BamHI sites. Primers were used as below: […]
as §2

hESCs = conditions: cited from earlier work

CO[C@H]1C[C@H](O[C@H]2CC[C@]3(C=O)[C@H]4CC[C@]5(C)[C@@H](C6=CC(=O)OC6)CC[C@]5(O)[C@@H]4CC[C@]3(O)C2)O[C@H](C)[C@H]1O [CYM, Cymarin]
IC50 (SW1990 cells): 33.8 ± 2.6 nM
percentage of TRA-1-60+ cells after treatment (TRA-1-60+ SW1990GR cells; 25 nM CYM, 5 days, SW1990GR, from ~18%): less than 5%
relative potency in TRA-1-60 inhibition (TRA-1-60+ SW1990GR cells; SW1990GR): higher potency than Ouabain
validation of primary hit (TRA-1-60+ SW1990GR cells; SW1990GR): able to be validated
IC50 (TRA-1-60+ SW1990GR cells; read-out: IC50, decrease of percentage of TRA-1-60+ cells): 15.2 ± 4.3 nM
percentage of Annexin V+/DAPI− (early) and Annexin V+/DAPI+ (late) apoptotic cells (SW1990GR cells): increased
UGT1A10 transcript levels [1]: decreased
expression of UGT1A10 in TRA-1-81+ and TRA-1-81− subpopulations ([2]; 25 nM CYM): significantly inhibits
UGT1A10 transcript levels ([2]; CYM treatment): decreased
survival of GEM-resistant cells (HPAF-II cells): significantly decreased the survival
survival of GEM-resistant cells (HT-29 cells): significantly decreased the survival
effect of ectopic UGT1A10 expression on Cymarin anti-chemoresistant activity [3]: partially rescues
effect on hESCs in a previous screen (hESCs): differentiation inducer of hESCs

— patent US20240277744A1, “TREATMENT OF CHEMORESISTANT CANCER CELLS” (Cornell University, priority 2023, published 2024)
